Measured values from US20250325565A1, “ERAVACYCLINE FOR TREATING CANCER” (B. G. NEGEV TECHNOLOGIES AND APPLICATIONS LTD., priority 2022, published 2025).

Tests used:
A549 cells = experiment: XTT cell proliferation assay, A549; type: cell-based, human; conditions: A549, 72 h, 1-50 μM
Experimental: (§1) Human PDAC (AsPC-1, BxPC-3, Panc-1 scr, Panc-1 p53-R273H knock-out (KO) hTERT-HPNE), breast (MCF-7), lung (A549), and colon (HT-29) cancer cell lines were purchased from the American Type Culture Collection (ATCC). The MCF-7, A549, Panc-1 scr, Panc-1 p53 KO and HT-29 cell lines were grown in Dulbecco's Modified Eagle Medium (DMEM; Biological Industries, Beit HaEmek (BI), Israel), and the BxPC-3 and AsPC-1 cell lines were cultured in Roswell Park Memorial Institute-1640 (RPMI-1640; BI, Israel) medium. All media was supplemented with 10% fetal bovine serum (FBS), 200 μM L-glutamine (BI), and 1% penicillin-streptomycin (BI). Cells were cultured at 37° C. in a 5% CO2 humidified incubator.
(§2) Eravacycline dihydrochloride (MedChem Express (MCE)) was dissolved in […] (DDW). Tigecycline (MCE) and omadacycline (MCE) were dissolved in dimethyl sulphoxide (DMSO). All drugs were prepared as 100 mM stock solutions. All cell lines were treated with DMSO as a control (less than 0.1%) or tigecycline, omadacycline, or eravacycline (at the indicated concentrations) for 72 hours. Cell viability and proliferation were determined using the XTT Cell Proliferation Assay Kit (Promega).
(§3) The XTT Cell Proliferation Assay Kit was used to determine cell viability and proliferation. Cells were seeded in 96-well plates at a density of 4,000 cells per well and allowed to attach overnight in a 5% CO2 incubator at 37° C. […] After shaking the plate gently to distribute the dye in the wells, the absorbance was measured with a spectrophotometer (Bio-RadiMark Microplate Absorbance reader) at a wavelength of 450 nm and a reference wavelength of 655 nm.
(§4) To evaluate the half maximal inhibitory concentration (IC50) of tetracycline derivatives on five different cell lines (MCF-7, A549, HT-29, BxPC-3, and AsPC-1), the cells were seeded and allowed to attach overnight. […] Inhibition of cell proliferation was determined using the XTT Cell Proliferation Assay Kit. […]

HT-29 cells = experiment: XTT cell proliferation assay, HT-29; type: cell-based, human; conditions: HT-29, 72 h, 1-50 μM
Experimental: as §1, §2, §3, §4

HPNE cell line = experiment: XTT cell proliferation assay, normal pancreatic HPNE cells; type: cell-based, human; conditions: 72 h
Experimental: as §1
as §3, with “C. After overnight incubation, cells were treated with culture medium or in a medium containing tigecycline, omadacycline, or eravacycline at different concentrations (1, 2, 5, 10, 25, and 50 μM) for the indicated time period.” for “C.”, “nm. […]” for “nm.”

AsPC-1 cells = experiment: XTT cell proliferation assay, AsPC-1; type: cell-based, human; conditions: for decrease in cell growth: 72 h
Experimental: as §1, §2
The XTT Cell Proliferation Assay Kit was used to determine cell viability and proliferation. Cells were seeded in 96-well plates at a density of 4,000 cells per well and allowed to attach overnight in a 5% CO2 incubator at 37° C. After overnight incubation, cells were treated with culture medium or in a medium containing tigecycline, omadacycline, or eravacycline at different concentrations (1, 2, 5, 10, 25, and 50 μM) for the indicated time period. Then, 50 μl XTT reaction solution (0.1 ml activation solution+5 ml XTT reagent solution) was added to each well, and the plate was incubated at 37° C. for two hours. After shaking the plate gently to distribute the dye in the wells, the absorbance was measured with a spectrophotometer (Bio-RadiMark Microplate Absorbance reader) at a wavelength of 450 nm and a reference wavelength of 655 nm.
To evaluate the half maximal inhibitory concentration (IC50) of tetracycline derivatives on five different cell lines (MCF-7, A549, HT-29, BxPC-3, and AsPC-1), the cells were seeded and allowed to attach overnight. All cells were washed with phosphate buffered saline (PBS) and then cultured in fresh media containing the drugs tigecycline, omadacycline, or eravacycline at an increasing concentration (0-50 μM) for 72 h. Inhibition of cell proliferation was determined using the XTT Cell Proliferation Assay Kit.
To investigate the effect of tetracycline derivatives on cell proliferation in human breast, lung, colon, and PDAC cells, the inventors treated all cell lines (MCF-7, A549, HT-29, BxPC-3, and AsPC-1) with different concentrations of tigecycline, omadacycline, and eravacycline (1, 2, 5, 10, 25, and 50 μM), with medium used as a control, for 72 h. Then, an XTT assay was performed to determine the growth inhibition rate.

BxPC-3 xenograft tumors = experiment: BxPC-3 cell xenograft tumor model; type: in vivo, athymic nude mice; conditions: nude mice
Experimental: Six-week-old female athymic nude mice were purchased from Envigo (Jerusalem, Israel) and housed in pathogen-free conditions and fed a standard sterilized diet. The mice were housed in humidity- and temperature-controlled conditions, and the light/dark cycle was set at 12 h intervals. The animal protocol was reviewed and approved by the Committee for the Ethical Care and Use of Animals in Research at Ben-Gurion University of the Negev, complying with the Israeli Animal Welfare Law. BxPC-3 cells (4×10^6) were injected subcutaneously into one flank of the mice. Tumor size was measured every other day based on caliper measurements of tumor length and width (volume=tumor length×width^2×0.5236). Ten days later, when tumors were palpable and reached volumes of 50-150 mm^3, the mice bearing tumors were randomly assigned to control or eravacycline groups (n=6). Treatment was administered every two days using either phosphate buffered saline (PBS), eravacycline (10 mg/kg by i.p. injection) or gemcitabine (25 mg/kg by i.p. injection) for 10 days. The tumor growth and mouse weight were measured every other day during the treatment period. After the last treatment, the mice were monitored for an additional six days, and then the experiment was terminated. The mice were then sacrificed, the tumors were excised, photographed, and measured, and the tumor tissues were snap-frozen, pending analysis.
To further assess the inhibition effect of eravacycline on human PDAC cells in vivo, BxPC-3 cells were injected subcutaneously into nude mice to establish xenograft models for in vivo experiments. The mice were randomly divided into three groups: the control group, the gemcitabine group (25 mg/kg), and the eravacycline group (10 mg/kg). Following the last administration of treatment, mice were monitored for an additional six days; then the experiment was terminated, the mice were sacrificed, and the tumors were excised, photographed, and weighed (FIGS. 6B-6D).

[1] = 10 mg/kg i.p. every two days for 10 days

CN(C)[C@@H]1C(O)=C(C(N)=O)C(=O)[C@@]2(O)C(O)=C3C(=O)c4c(O)c(NC(=O)CN5CCCC5)cc(F)c4C[C@H]3C[C@@H]12 [eravacycline, (4S,4aS,5aR,12aS)-4-(Dimethylamino)-7-fluoro-3,10,12,12a-tetrahydroxy-1,11-dioxo-9-[2-(pyrrolidin-1-yl)acetamido]-1,4,4a,5,5a,6,11,12a-octahydrotetracene-2-carboxamide]
effect on cell survival / proliferation (in words) (A549 cells): No significant effect
effect on cell survival / proliferation (in words) (HT-29 cells): No significant effect
effect on cell proliferation of normal pancreatic cells (in words) (HPNE cell line): significantly less inhibition than the other PDAC cell lines
decrease in cell growth (AsPC-1 cells; AsPC-1, 25 μM): 75%
decrease in cell growth (AsPC-1 cells; AsPC-1, 50 μM): 89%
suppression of proliferation, up to (AsPC-1 cells; AsPC-1, 72 h, concentration-dependent, 1-50 μM): 90-93%
IC50 (AsPC-1 cells; Homo sapiens, ASPC1, AsPC-1, 72 h, XTT, read-out: IC50, inhibition of cell proliferation): 7.07 µM
mouse weight loss vs control group (BxPC-3 xenograft tumors; [1]): no significant weight loss
tumor growth blocked (BxPC-3 xenograft tumors; [1]): 76%
tumor volume and tumor weight compared with gemcitabine (25 mg/kg) (BxPC-3 xenograft tumors; 10 mg/kg i.p.): superior to gemcitabine treatment
